{"source": "paper PMC6918900", "about": "“Concentration-Dependent Activity of Hydromethylthionine on Cognitive Decline and Brain Atrophy in Mild to Moderate Alzheimer’s Disease” (Journal of Alzheimer's Disease, 2019)", "key": {"[1]": {"tested_on": "patients with mild to moderate Alzheimer's disease", "assay": "ADAS-cog11 change over 65 weeks by plasma exposure", "assay_type": "in vivo, human", "conditions": "for ADAS-cog Difference ± SEM: split by 8 mg/day Cmax,ss median", "text": "(§1) Pharmacokinetic analyses were undertaken using plasma concentration data from patients who participated in either of two completed Phase III trials which have been described previously [[35, 36]]. In brief, the first (TRx-237-015) was a 15-month study which recruited 890 patients from 115 sites across 16 countries in EU, North America, Asia, and Russia. Patients had to be <90 years of age and have a diagnosis of mild to moderate probable AD according to National Institute of Aging (NIA) and Alzheimer’s Association (AA) criteria and a Mini-Mental State Examination (MMSE) score of 14–26 inclusive and with a Clinical Dementia Rating (CDR) total score of 1 or 2. The second study (TRx-237-005) was an 18-month trial which recruited 800 patients from 108 sites in Canada, United States, Australia, and Europe. Patients had to meet the same age and diagnosis criteria, except that they were required to have a MMSE score of 20–26 inclusive and a CDR total score of 0.5 or 1.0. Concomitant use of AChEIs or memantine (or both) was permitted in both studies provided this was at a stable dose for at least 18 weeks before randomization. Concomitant use of serotonergic antidepressant, antipsychotic (except clozapine or olanzapine), and sedative medications was also permitted at stable doses where clinically feasible. Patients were randomly assigned to receive LMTM at doses of 250, 150, or 8 mg/day in Study 015 and doses of 200 or 8 mg/day in Study TRx-237-005. Randomization in both studies was stratified according to geographical region, use of AD-labelled co-medications, and severity of AD. The co-primary outcomes in both studies were the Alzheimer’s Disease Assessment Scale–cognitive subscale, 11-item version (ADAS-cog11) and the Alzheimer’s Disease Co-operative Study–Activities of Daily Living, 23-item version (ADCS-ADL23) scale measured at baseline and every 3 months. MRI scans were undertaken at screening or baseline and at 3-month intervals. MRI acquisition protocol and parameters were standardized across sites and all data were centrally collected, quality-controlled, and analyzed blind by an imaging core lab (Bioclinica). Volumetric data were used to measure changes in whole brain volume (WBV, which provides a measure of the volume of grey and white matter), lateral ventricular volume (LVV), and other regional volumes including hippocampus, although only the global measures are reported in the present study. Baseline volumes were assessed using FreeSurfer 5.3, and volume change was assessed using Boundary Shift Integral and Tensor Based Morphometry for regional structures. Full details and study protocols for these two trials are available [[35, 36]].\nThe exposure-response analyses were conducted independently by ICPD and verified by TauRx. As a first step in the analysis, the concentration-response data were reviewed for ADAS-cog11 decline at week 65 in all patients receiving LMTM at a dose of 8 mg/day using a sigmoid Emax (maximum response) model not requiring assumptions regarding exposure subgroups. The model was fitted using covariates geographical region, CDR at baseline, co-medication status, and baseline ADAS-cog11. A 90% bootstrap confidence interval was also calculated.\n(§2) Having shown a concentration-dependent response for cognitive decline, a mixed-effects model for repeated measures analysis was used to characterize further the relationship between each efficacy endpoint and parent MT plasma exposure (steady state Cmax,ss) according to the following formula: pharmacological activity∼plasma-level×visit+co-medication-status×visit+co-medication-status×plasma-level+geographical-region+CDR-at-baseline+baseline-score×visit\nThe following terms were categorical variables in the models: plasma exposure (Cmax,ss) (7 levels), visit (5 levels), co-medication status with AD drugs (2 levels), geographical region (2 levels), and CDR at baseline (3 levels). […]"}, "[2]": {"tested_on": "patients with mild to moderate Alzheimer's disease", "assay": "ADCS-ADL23 change over 65 weeks by plasma exposure", "assay_type": "in vivo, human", "conditions": "for ADCS-ADL Difference ± SEM: split by 8 mg/day Cmax,ss median", "text": "as §1, §2\n(§3) The following terms were categorical variables in the models: plasma exposure (Cmax,ss) (7 levels), visit (5 levels), co-medication status with AD drugs (2 levels), geographical region (2 levels), and CDR at baseline (3 levels). For the longitudinal analyses, plasma level was described by two levels (above or below threshold)."}, "[3]": {"tested_on": "patients with mild to moderate Alzheimer's disease", "assay": "MRI whole brain volume (WBV) change over 65 weeks by plasma exposure", "assay_type": "in vivo, human", "conditions": "for WBV Difference ± SEM: split by 8 mg/day Cmax,ss median", "text": "as §1, §2, §3"}, "[4]": {"tested_on": "tau transgenic mouse model for AD", "set-up": "method as in PMID 32091331", "conditions": "5 and 15 mg/kg/day; cited from earlier work"}, "[5]": {"conditions": "LMTM 8 mg/day as add-on therapy, Cmax,ss above vs below 0.373 ng/ml"}, "[6]": {"conditions": "LMTM 8 mg/day as monotherapy, Cmax,ss above vs below 0.373 ng/ml"}, "[7]": {"conditions": "LMTM 8 mg/day, low Cmax add-on versus high Cmax monotherapy"}, "[8]": {"conditions": "all patients, high vs low exposure split by Cmax,ss 0.373 ng/ml, 65 weeks"}, "[9]": {"conditions": "patients receiving LMTM 8 mg/day, split by Cmax,ss 0.373 ng/ml, 65 weeks"}}, "data": [{"compound": "CN(C)c1ccc2c(c1)Sc1cc(N(C)C)ccc1N2", "note": "[LMTM, leuco-methylthioninium bis(hydromethanesulphonate)]", "values": [{"measurement": "ADAS-cog11 Difference±SEM in change from baseline", "setting": "[1]; [5]", "result": "–3.52±0.78"}, {"measurement": "ADAS-cog11 Difference±SEM in change from baseline", "setting": "[1]; [6]", "result": "–2.60±1.16"}, {"measurement": "ADAS-cog Difference ± SEM", "setting": "[1]; LMTM 8 mg/day as monotherapy", "result": "-2.75 ± 1.09"}, {"measurement": "ADAS-cog11 Difference±SEM in change from baseline", "setting": "[1]; [7]", "result": "–7.53±1.22"}, {"measurement": "ADAS-cog11 Difference±SEM in change from baseline", "setting": "[1]; [8]", "result": "–2.66±0.69"}, {"measurement": "ADAS-cog Difference ± SEM", "setting": "[1]; all patients", "result": "-1.91 ± 0.59"}, {"measurement": "ADAS-cog11 Difference±SEM in change from baseline", "setting": "[1]; [9]", "result": "–3.41±0.76"}, {"measurement": "ADCS-ADL23 Difference±SEM in change from baseline", "setting": "[2]; [5]", "result": "1.32±1.04"}, {"measurement": "ADCS-ADL23 Difference±SEM in change from baseline", "setting": "[2]; [6]", "result": "0.46±1.47"}, {"measurement": "ADCS-ADL Difference ± SEM", "setting": "[2]; LMTM 8 mg/day as monotherapy", "result": "0.52 ± 1.38"}, {"measurement": "ADCS-ADL23 Difference±SEM in change from baseline", "setting": "[2]; [7]", "result": "6.14±1.64"}, {"measurement": "ADCS-ADL23 Difference±SEM in change from baseline", "setting": "[2]; [8]", "result": "0.54±0.94"}, {"measurement": "ADCS-ADL Difference ± SEM", "setting": "[2]; all patients", "result": "0.21 ± 0.81"}, {"measurement": "ADCS-ADL23 Difference±SEM in change from baseline", "setting": "[2]; [9]", "result": "1.22±1.01"}, {"measurement": "WBV Difference±SEM in change from baseline", "setting": "[3]; [5]", "result": "4.69±1.21", "unit": "cm^3"}, {"measurement": "WBV Difference ± SEM", "setting": "[3]; LMTM 8 mg/day as add-on therapy", "result": "4.02 ± 1.17", "unit": "cm3"}, {"measurement": "WBV Difference±SEM in change from baseline", "setting": "[3]; [6]", "result": "2.76±1.66", "unit": "cm^3"}, {"measurement": "WBV Difference ± SEM", "setting": "[3]; LMTM 8 mg/day as monotherapy", "result": "1.07 ± 1.58", "unit": "cm3"}, {"measurement": "WBV Difference±SEM in change from baseline", "setting": "[3]; [7]", "result": "11.54±1.87", "unit": "cm^3"}, {"measurement": "WBV Difference±SEM in change from baseline", "setting": "[3]; [8]", "result": "3.55±1.10", "unit": "cm^3"}, {"measurement": "WBV Difference ± SEM", "setting": "[3]; all patients", "result": "2.47 ± 0.92", "unit": "cm3"}, {"measurement": "WBV Difference±SEM in change from baseline", "setting": "[3]; [9]", "result": "4.39±1.18", "unit": "cm^3"}, {"measurement": "Complex IV activity in brain mitochondria", "setting": "[4]", "result": "increase Complex IV activity in brain mitochondria"}, {"measurement": "acetylcholine levels in hippocampus", "setting": "[4]", "result": "increase acetylcholine levels in hippocampus"}, {"measurement": "choline acetyltransferase activity in basal forebrain", "setting": "[4]", "result": "restore choline acetyltransferase activity in basal forebrain"}, {"measurement": "glutamate release from brain synaptosomes", "setting": "[4]", "result": "reverse impairment in glutamate release from brain synaptosomes"}]}]}
